Experimental findings from paper PMC3998376 (Journal of chromatography. A, 2014) are described below.

Structures are written as SMILES.

Series [1] has as its target T1, nuclear BCRP (Homo sapiens, UniProt Q9UNQ0).
T1 sequence (Q9UNQ0 1-655): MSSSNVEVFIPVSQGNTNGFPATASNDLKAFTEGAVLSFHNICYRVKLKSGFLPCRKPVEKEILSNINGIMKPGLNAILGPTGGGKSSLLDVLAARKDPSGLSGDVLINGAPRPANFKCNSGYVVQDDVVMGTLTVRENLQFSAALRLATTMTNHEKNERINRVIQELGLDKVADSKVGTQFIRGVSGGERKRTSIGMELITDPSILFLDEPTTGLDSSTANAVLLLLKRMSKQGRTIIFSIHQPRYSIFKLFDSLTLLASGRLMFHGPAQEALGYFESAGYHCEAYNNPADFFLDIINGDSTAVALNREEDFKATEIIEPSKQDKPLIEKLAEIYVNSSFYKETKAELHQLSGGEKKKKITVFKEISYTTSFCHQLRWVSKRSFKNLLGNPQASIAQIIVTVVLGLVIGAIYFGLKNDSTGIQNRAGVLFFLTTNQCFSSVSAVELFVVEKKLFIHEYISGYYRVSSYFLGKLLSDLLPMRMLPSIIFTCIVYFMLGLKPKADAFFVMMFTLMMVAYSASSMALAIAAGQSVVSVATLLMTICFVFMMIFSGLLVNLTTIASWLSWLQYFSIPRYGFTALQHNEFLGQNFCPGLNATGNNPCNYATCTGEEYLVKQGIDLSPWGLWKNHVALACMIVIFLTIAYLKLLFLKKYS
Kind of series: Screening of BCRP ligands, single frontal displacement of etoposide on NMAC. Particulars: NMAC(LN229) column, verapamil in mobile phase, etoposide as marker ligand.

Series [2] concerns Pgp, MRP1 and BCRP transporters (LN-229 nuclear membranes, open tubular). The experiment in a line: Frontal affinity chromatography on NMAC. It is filed as binding, human. To be noted: read-out: Binding affinity (Kd); NMAC(LN-229)-OT column, ammonium acetate 10 mM pH 7.4, 0.05 mL/min.
Series [3] deals with Pgp, MRP1 and BCRP transporters (LN-229 cellular membranes, open tubular). Kind of series: Frontal affinity chromatography on CMAC. The series is classed as binding, human. To be noted: read-out: Binding affinity (Kd); CMAC(LN-229)-OT column, ammonium acetate 10 mM pH 7.4, 0.05 mL/min.
The subject of series [4] is Pgp, MRP1 and BCRP. The experiment in a line: Frontal affinity chromatography on NMAC. The series is classed as binding, human. To be noted: human, pH 7.4.
Series [5] deals with MRP1 (Homo sapiens, UniProt P33527). Kind of series: Selective Kd determination on NMAC. The series is classed as binding.
Series [6] deals with T2, BCRP (Homo sapiens, UniProt Q9UNQ0).
T2 sequence (Q9UNQ0 1-655): T1 sequence (Q9UNQ0 1-655)
The experiment in a line: Selective Kd determination on NMAC. The series is classed as binding.

For series [7], the system named is Pgp, MRP1 and BCRP co-immobilized. Kind of series: in vitro. To be noted: human, pH 7.4, Binding affinity (Kd), NMAC(LN-229)-IAM column, all transporters, ammonium acetate 10 mM pH 7.4, 0.4 mL/min.
In series [8] the test system is Pgp, MRP1 and BCRP. Kind of series: Frontal affinity chromatography on CMAC. Particulars: human, pH 7.4. It is filed as binding, human.

Sequence of MRP1 (P33527 whole entry): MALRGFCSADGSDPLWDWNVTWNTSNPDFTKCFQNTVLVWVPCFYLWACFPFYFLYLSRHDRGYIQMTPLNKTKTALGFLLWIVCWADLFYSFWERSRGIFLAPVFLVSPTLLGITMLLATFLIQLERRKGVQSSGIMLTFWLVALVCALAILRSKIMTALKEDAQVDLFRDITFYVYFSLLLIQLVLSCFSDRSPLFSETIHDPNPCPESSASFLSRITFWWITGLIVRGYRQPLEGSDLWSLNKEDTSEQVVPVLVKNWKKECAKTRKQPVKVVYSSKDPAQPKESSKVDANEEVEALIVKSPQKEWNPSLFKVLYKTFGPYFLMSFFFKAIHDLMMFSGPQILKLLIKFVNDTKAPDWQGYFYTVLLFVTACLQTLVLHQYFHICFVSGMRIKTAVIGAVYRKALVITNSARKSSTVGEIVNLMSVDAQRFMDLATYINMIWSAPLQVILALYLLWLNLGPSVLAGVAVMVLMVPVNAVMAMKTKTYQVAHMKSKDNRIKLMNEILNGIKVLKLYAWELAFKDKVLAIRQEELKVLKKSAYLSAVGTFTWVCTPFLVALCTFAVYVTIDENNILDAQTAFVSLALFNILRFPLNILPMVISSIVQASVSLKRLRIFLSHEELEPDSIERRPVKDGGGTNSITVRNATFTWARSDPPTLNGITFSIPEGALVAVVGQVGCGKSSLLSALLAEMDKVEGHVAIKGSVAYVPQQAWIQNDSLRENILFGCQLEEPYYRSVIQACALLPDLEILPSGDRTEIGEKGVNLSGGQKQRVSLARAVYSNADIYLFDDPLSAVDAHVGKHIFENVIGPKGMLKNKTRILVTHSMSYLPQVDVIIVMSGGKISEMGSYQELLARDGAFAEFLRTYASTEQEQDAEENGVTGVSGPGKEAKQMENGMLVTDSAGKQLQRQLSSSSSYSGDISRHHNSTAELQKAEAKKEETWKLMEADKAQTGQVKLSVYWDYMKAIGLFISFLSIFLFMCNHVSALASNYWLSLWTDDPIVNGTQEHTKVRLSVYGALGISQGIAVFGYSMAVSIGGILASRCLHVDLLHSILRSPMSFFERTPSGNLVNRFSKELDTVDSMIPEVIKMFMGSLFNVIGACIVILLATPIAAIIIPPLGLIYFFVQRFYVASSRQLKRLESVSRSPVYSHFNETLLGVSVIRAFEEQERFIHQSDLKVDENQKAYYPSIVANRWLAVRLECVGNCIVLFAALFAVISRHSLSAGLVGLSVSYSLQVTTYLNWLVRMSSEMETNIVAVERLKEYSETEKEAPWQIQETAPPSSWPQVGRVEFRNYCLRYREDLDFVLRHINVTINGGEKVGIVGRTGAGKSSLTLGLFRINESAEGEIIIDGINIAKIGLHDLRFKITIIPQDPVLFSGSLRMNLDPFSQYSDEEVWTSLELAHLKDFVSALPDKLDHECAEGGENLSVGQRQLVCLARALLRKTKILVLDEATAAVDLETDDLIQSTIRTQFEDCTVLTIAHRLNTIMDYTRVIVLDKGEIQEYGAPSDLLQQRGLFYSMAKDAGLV

Turning to `Cc1cn([C@H]2C[C@H](N=[N+]=[N-])[C@@H](CO)O2)c(=O)[nH]c1=O` [AZT, zidovudine], the “Change in retention of etoposide” value in series [1] was −5%.
By Kd is commonly meant the concentration at which binding is half-saturated. Take `COc1ccc(-c2coc3cc(O)cc(O)c3c2=O)cc1` [biochanin A]: the dissociation constant Kd in series [2] turned out to be 1750 ± 360 nM; in series [3], 690 ± 170 nM.
Consider `COc1cc([C@@H]2c3cc4c(cc3[C@@H](O[C@@H]3O[C@@H]5CO[C@@H](C)O[C@H]5[C@H](O)[C@H]3O)[C@H]3COC(=O)[C@H]23)OCO4)cc(OC)c1O` [etoposide], for which the equilibrium dissociation constant (Kd) was determined as 1260 ± 360 nM in series [4]; 4390 ± 1930 nM in series [5]; 1410 ± 540 nM in series [6]; 3750 ± 970 nM in series [7]; 2250 ± 490 nM in series [8]. Besides, the “Reduction of breakthrough volume on addition of 2 μM verapamil” value is listed as ~ 10% in series [6] (0.75 μM etoposide, NMAC(LN-229)-IAM) and ~ 15% in series [6] (5 μM etoposide, NMAC(LN-229)-IAM). The “Breakthrough volume with 2 μM verapamil in mobile phase” value in series [6] (5 μM etoposide, NMAC(LN-229)-IAM, 2 μM verapamil) is given as 21.01 min.
